{
  "source": "patent US20210139441A1",
  "about": "(priority 2017, published 2021)",
  "system": "Crl:CD(SD) rats",
  "conditions": "rat, in vivo",
  "data": [
    {"smiles": "FC(F)(F)[C@@H]1O[C@@H]1C(F)(F)F", "note": "[(2R,3S)-2,3-bis(trifluoromethyl)oxirane, Cis-2,3-bis(trifluoromethyl)oxirane]", "values": [
      {"measurement": "Fractional mortalities (number of deaths/number exposed)", "setting": "both, Crl:CD(SD)", "result": "0/4"},
      {"measurement": "activity level and breathing rate", "result": "decreased"},
      {"measurement": "bodyweight loss", "result": 3, "unit": "gram"},
      {"measurement": "clinical signs after exposure", "result": "no abnormal clinical signs"},
      {"measurement": "clinical signs of toxicity", "result": "no clinical signs of toxicity"},
      {"measurement": "startle response after exposure", "result": "normal startle response"},
      {"measurement": "startle response during the exposure", "result": "normal startle responses"},
      {"measurement": "state and response to sound stimulus", "result": "prostrate and unresponsive to sound stimulus"}
    ]}
  ]
}
